Measurements from patent US20200155475A1, “Transdermal Drug Delivery System” (Avro Life Sciences, Inc., priority 2017, published 2020).

Legend:
[1] = Further experiments: permeation of small molecules through the patch matrix; conditions: molecules trapped in polymer matrix
[2] = Procedure: (§1) Modified Franz Diffusion Cells were filled with 55 ml of phosphate buffer, and a skin simulating membrane was placed in each cell at air-water interface and secured with a holed cap. The cells were placed into a water bath and the temperature was equilibrated to 38° C. The drug-loaded patch was gently placed onto the membrane and pressed down lightly. At different time points, the drug solution was collected and replaced with fresh buffer, and ultraviolet (UV) absorbance was measured at 200-300 nm with clean quartz cuvettes, using standard curves to determine drug concentrations and cumulative drug release percentages over time.
as §1, with “The permeation or flux of several drugs transdermally delivered to the skin was measured in vitro as a function of time using an artificial skin simulating membrane attached to a Franz diffusion cell at air-water interface. […] Modified” for “Modified”

[3] = Percentage diffusion of 4-aminopyridine through the transdermal drug delivery system over time; assay type: in vitro ADME
Procedure: (§2) The patch in the transdermal drug delivery system consisted of 23% (w/w) glycerol, 16% (w/w) gum Arabic, 11% (w/w) medium molecular weight chitosan, and 48% (w/w) lactic acid. The patch was prepared by casting the liquid matrix gel upon a suitable Teflon backing layer and drying for 18 hours at 55° C. The resulting diffusion profiles were obtained by conducting the same experiment three times. The patch samples indicate the number of times that the same experiment was conducted.
The patch in the transdermal drug delivery system consisted of 50% (w/w) glycerol, 14% (w/w) PVP, 18% (w/w) medium molecular weight chitosan, and 18% (w/w) lactic acid. The patch was prepared by casting the liquid matrix gel upon a suitable Teflon backing layer and drying for 3 hours at 80° C. The resulting diffusion profiles were obtained by conducting the same experiment eight times. The patch samples indicate the number of times that the same experiment was conducted.
as §2, with “36%” for “23%”, “15.3% PVP, 0.7%” for “16%”, “9.5%” for “11%”, “38.5%” for “48%”, “5” for “18”, “80°” for “55°”
The percentage diffusion of 4-aminopyridine through the transdermal drug delivery system provided herein was measured over time, using different patch compositions. […] The patch was prepared by casting the liquid matrix gel upon a suitable Teflon backing layer and drying for 18 hours at 55° C.
The patch was prepared by casting the liquid matrix gel upon a suitable Teflon backing layer and drying for 3 hours at 80° C.
The patch was prepared by casting the liquid matrix gel upon a suitable Teflon backing layer and drying for 5 hours at 80° C.

SMILES	permeation into skin and bloodstream through the patch matrix [1]	diffusion of drug from the patch through skin simulating membrane over time (system permeable / impermeable) [2]	also measured
CC(NCCn1cnc2c1c(=O)n(C)c(=O)n2C)C(O)c1ccccc1 (stereo not shown) [cafedrine]	cannot permeate	–	–
Cn1c(=O)c2c(ncn2CCNCC(O)c2ccc(O)c(O)c2)n(C)c1=O (stereo not shown) [theodrenaline]	cannot permeate	–	–
CN(C)CCC[C@@]1(c2ccc(F)cc2)OCc2cc(C#N)ccc21.O=C(O)C(=O)O [escitalopram oxalate, Escitalopram Oxalate]	–	permeable	–
CC(Cc1ccccc1)NCCn1cnc2c1c(=O)n(C)c(=O)n2C (stereo not shown) [fenethylline]	cannot permeate	–	–
CC(=O)CCCCn1c(=O)c2c(ncn2C)n(C)c1=O [pentoxifyline]	cannot permeate	–	–
O=C1CCc2ccc(OCCCCN3CCN(c4cccc(Cl)c4Cl)CC3)cc2N1 [aripiprazole, Aripiprazole]	–	impermeable	–
Nc1ccncc1 [4-aminopyridine]	–	permeable	permeation and diffusion through patch over time ([3]; patch: 23% glycerol, 16% gum Arabic, 11% medium MW chitosan, 48% lactic acid, dried 18 hours at 55° C., FIG. 4): allows permeation and diffusion; permeation and diffusion through patch over time ([3]; patch: 36% glycerol, 15.3% PVP, 0.7% gum Arabic, 9.5% medium MW chitosan, 38.5% lactic acid, dried 5 hours at 80° C., FIG. 6): allows permeation and diffusion; permeation and diffusion through patch over time ([3]; patch: 50% glycerol, 14% PVP, 18% medium MW chitosan, 18% lactic acid, dried 3 hours at 80° C., FIG. 5): allows permeation and diffusion
